Where two headings read alike, the source gives them in different places.
What was measured:
[1] = system: S. elongatus strain BUOH-SE
Protocol: S. elongatus PCC7942 cells were grown according to the procedure in “culture medium and condition”. Once growth reached OD730 about 2, the culture was diluted to OD730 of 0.1 with 50 mL fresh BG11 medium containing 50 mM NaHCO3 and appropriate antibiotics. Then, various amounts of n-butanol were added into the culture to achieve the desired concentration (0, 250, 500, 750, and 1000 mg/L). Growth was measured daily. Every two days, 5 mL of culture was removed and 5 mL fresh BG-11 containing 500 mM NaHCO3, appropriate amounts of antibiotics and n-butanol was added back to the culture to ensure sufficient carbon supply.

[2] = system: S. elongatus strain BUOH-SE; assay: n-Butanol toxicity test (growth); assay type: cell-based, Synechococcus elongatus PCC 7942
Protocol: Growth was measured daily.

[3] = target: T1, Lactobacillus brevis PduP, CoA-acylating propionaldehyde dehydrogenase (PduP_L.bre, YP_795711, SEQ ID NO:47 and 48), poly-His6 tagged (Levilactobacillus brevis, UniProt Q03Q42); assay: Kinetic parameters of PduP (CoA-acylating aldehyde dehydrogenase), NADH depletion at 340 nm; assay type: biochemical; conditions: pH 7.15, 30° C., 500 μM NADH, 1 mM DTT, acyl-CoA 0.03 mM to 2 mM
T1 sequence (Q03Q42 1-477): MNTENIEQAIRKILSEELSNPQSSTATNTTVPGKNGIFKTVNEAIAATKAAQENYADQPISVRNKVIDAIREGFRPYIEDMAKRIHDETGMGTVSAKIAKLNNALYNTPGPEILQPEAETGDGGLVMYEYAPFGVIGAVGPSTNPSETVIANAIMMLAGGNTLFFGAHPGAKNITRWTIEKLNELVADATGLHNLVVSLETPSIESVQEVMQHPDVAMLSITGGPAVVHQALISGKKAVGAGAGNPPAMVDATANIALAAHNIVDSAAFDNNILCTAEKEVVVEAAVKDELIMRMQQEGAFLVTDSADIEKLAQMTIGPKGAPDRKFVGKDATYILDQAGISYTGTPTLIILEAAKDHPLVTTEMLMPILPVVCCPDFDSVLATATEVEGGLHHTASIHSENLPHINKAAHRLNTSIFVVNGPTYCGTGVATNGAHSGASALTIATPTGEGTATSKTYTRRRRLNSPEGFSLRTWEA
Protocol: (§1) Protein purification was done by using His-Spin Protein miniprep purification kit from Zymo following manufacturer's manual. Overnight culture of E. coli strain BL-21(DE3) harboring different pCDF-pdup plasmid was used to inoculate fresh 20 ml LB. The newly inoculated culture was incubated at 37° C. until OD600 nm reaches 0.6 which was then induced with 1 mM IPTG. The induced cultures were then incubated overnight in 30° C. rotary shaker to allow protein expression. The cultures were then harvested by centrifugation at 4,300×g for 20 min. The pellet was then resuspended with 1 mL of Zymo His-binding buffer and mixed with 1 mL of 0.1 mm glass beads (Biospec). The sample was then homogenated using TissueLyser II (Quiagen).
(§2) Enzyme assays were conducted by using Bio-Tek PowerWave XS microplate spectrophotometer. CoA-acylating aldehyde dehydrogenase activity was measured by the decrease of absorbance at 340 nm, corresponding to depletion of NADH. […] For determining specific activity for other chain length acyl-CoA, 500 μM was used. The mixture excluding acyl-CoA was incubated for 5 minutes at 30° C. The addition of the acyl-CoA initiated the reaction. kcat and Km were determined by nonlinear regression fitting to Michaelis-Menten equation using graphing software Origin.
(§3) To characterize these PduP homologues, plasmids harboring individual pduP genes were constructed with a poly-His6 tag (plasmids pCDF-pduP_ahyd, pCDF-pdup_kpne, pCDF-pdup_lbre, pCDF-pdup_lmon, pCDF-pdup_sent, and pCDF-pdup_pgin). PduP homologues were then purified under aerobic condition without cleaving off His tags. The activities of the enzymes were determined using acyl-CoA with different chain lengths, and the disappearance of NADH was monitored.
(§4) The efficiency of these PduP homologues were assessed.

[4] = target: Klebsiella pneumoniae PduP, CoA-acylating propionaldehyde dehydrogenase (PduP_K.pne, YP_001336844, SEQ ID NO:45 and 46), poly-His6 tagged (Klebsiella pneumoniae, UniProt A0ACD7U6D7); assay: as above; conditions: pH 7.15, 30° C., 500 μM NADH, 1 mM DTT, acyl-CoA 0.03 mM to 2 mM
Protocol: as §1, §2, §3, §4

[5] = target: Listeria monocytigenes PduP, CoA-acylating propionaldehyde dehydrogenase (PduP_L.mon, NP_464690, SEQ ID NO:49 and 50), poly-His6 tagged (Listeria monocytogenes, UniProt Q8Y7V4); assay: as above; conditions: pH 7.15, 30° C., 500 μM NADH, 1 mM DTT, acyl-CoA 0.03 mM to 2 mM
Protocol: as §1, §2, §3, §4

[6] = target: Porphyromonas gingivalis PduP, CoA-acylating propionaldehyde dehydrogenase (PduP_P.gin, YP_001928839, SEQ ID NO:51 and 52), poly-His6 tagged (Porphyromonas gingivalis, UniProt B2RIP7); assay: as above; conditions: pH 7.15, 30° C., 500 μM NADH, 1 mM DTT, acyl-CoA 0.03 mM to 2 mM
Protocol: as §1, §2, §3, §4

[7] = target: Salmonella enterica PduP, CoA-acylating propionaldehyde dehydrogenase (PduP_S.ent, AAD39015, SEQ ID NO:33 and 34), poly-His6 tagged (Salmonella enterica, UniProt Q9XDN1); assay: as above; conditions: pH 7.15, 30° C., 500 μM NADH, 1 mM DTT, acyl-CoA 0.03 mM to 2 mM
Protocol: as §1, §2, §3, §4

[8] = CoA-acylating aldehyde dehydrogenase (PduP) assay, butyryl-CoA reduction; assay type: biochemical; conditions: purified under aerobic condition; 500 μM NADH, 1 mM DTT, pH 7.15, 30° C.
Protocol: as §1, §2, §3, §4

[9] = Substrate chain length specificity of PduP; assay type: biochemical; conditions: acyl-CoA chain lengths C2 to C12
Protocol: FIG. 3A-B Substrate chain length specificity of CoA-acylating aldehyde dehydrogenases, PduP. A) Specific activity of different PduP (pmol min^−1 mg^−1). B) Relative activity of PduP. Specific activity was determined with substrate concentration of 1 mM acyl-CoA, 500 uM NADH, 1 mM DTT in 50 mM potassium phosphate buffer at pH 7.15 at 30° C.
as §2, §3

[10] = system: E. coli strain JCL166; assay: E. coli anaerobic growth rescue with PduP and n-butanol pathway; assay type: cell-based; conditions: GC of culture medium
Protocol: Cells of E. coli strain JCL166 and its derivatives were cultured overnight in LB with appropriate antibiotics at 37° C. Overnight cultures (3 μL) were used to inoculate 3 mL of fresh LB media supplemented with 1% glucose and appropriate antibiotics (100 μg/mL ampicillin and 50 μg/mL kanamycin) and 0.1 mM IPTG in 10 mL BD vacutainers. A needle with Millipore PES filter was used to pierce through the rubber cap of the culture. The headspace of these cultures was then purged several times with 95% N2/5% H2 gas using an anaerobic chamber (Coy Lab Products, Grass Lake, Mich.). The needle with filter was removed in anaerobic chamber. These anaerobic cultures were then taken out of anaerobic chamber and incubated in 37° C. rotary shaker. Culture was analyzed 24 hours later for cell density and alcohol content measurement.
These PduP homologues were tested for n-butanol production utilizing an anaerobic growth rescue assay. E. coli strain JCL 166 (ΔadhE, ΔldhA, ΔfrdB) contains gene knock-outs for mixed acid fermentation. Fermentation pathways are essential for E. coli to recycle NADH back into to NAD^+ for the Embden-Meyerhof-Parnas pathway to continue (FIG. 2A). […] The culture medium of these anaerobically grown cultures were analyzed for alcohol production (FIG. 2C) using gas chromatography (GC).

[11] = substrate: CC(=O)SCCNC(=O)CCNC(=O)[C@H](O)C(C)(C)COP(=O)(O)OP(=O)(O)OC[C@H]1O[C@@H](n2cnc3c(N)ncnc32)[C@H](O)[C@@H]1OP(=O)(O)O; assay: purified protein, by the assay type; conditions: other: pH 7.15, 30° C., 500 μM NADH, 1 mM DTT, acyl-CoA 0.03 mM to 2 mM
[12] = substrate: CCCC(=O)SCCNC(=O)CCNC(=O)[C@H](O)C(C)(C)COP(=O)(O)OP(=O)(O)OC[C@H]1O[C@@H](n2cnc3c(N)ncnc32)[C@H](O)[C@@H]1OP(=O)(O)O; assay: purified protein, by the assay type; conditions: other: pH 7.15, 30° C., 500 μM NADH, 1 mM DTT, acyl-CoA 0.03 mM to 2 mM

Chain of Porphyromonas gingivalis PduP, CoA-acylating propionaldehyde dehydrogenase (PduP_P.gin, YP_001928839, SEQ ID NO:51 and 52), poly-His6 tagged (B2RIP7 entry or part of it): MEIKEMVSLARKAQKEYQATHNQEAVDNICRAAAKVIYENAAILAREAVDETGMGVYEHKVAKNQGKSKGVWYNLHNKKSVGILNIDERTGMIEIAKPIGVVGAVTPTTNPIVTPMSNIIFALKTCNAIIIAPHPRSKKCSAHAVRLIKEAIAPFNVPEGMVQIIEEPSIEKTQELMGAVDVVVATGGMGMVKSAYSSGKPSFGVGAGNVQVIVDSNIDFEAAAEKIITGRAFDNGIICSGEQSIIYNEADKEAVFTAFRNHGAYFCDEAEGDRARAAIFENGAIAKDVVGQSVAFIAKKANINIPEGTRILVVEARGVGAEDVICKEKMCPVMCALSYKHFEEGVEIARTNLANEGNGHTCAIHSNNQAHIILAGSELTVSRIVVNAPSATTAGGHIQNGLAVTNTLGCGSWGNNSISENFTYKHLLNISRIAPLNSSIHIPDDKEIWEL
Chain of Listeria monocytigenes PduP, CoA-acylating propionaldehyde dehydrogenase (PduP_L.mon, NP_464690, SEQ ID NO:49 and 50), poly-His6 tagged (Q8Y7V4 entry or part of it): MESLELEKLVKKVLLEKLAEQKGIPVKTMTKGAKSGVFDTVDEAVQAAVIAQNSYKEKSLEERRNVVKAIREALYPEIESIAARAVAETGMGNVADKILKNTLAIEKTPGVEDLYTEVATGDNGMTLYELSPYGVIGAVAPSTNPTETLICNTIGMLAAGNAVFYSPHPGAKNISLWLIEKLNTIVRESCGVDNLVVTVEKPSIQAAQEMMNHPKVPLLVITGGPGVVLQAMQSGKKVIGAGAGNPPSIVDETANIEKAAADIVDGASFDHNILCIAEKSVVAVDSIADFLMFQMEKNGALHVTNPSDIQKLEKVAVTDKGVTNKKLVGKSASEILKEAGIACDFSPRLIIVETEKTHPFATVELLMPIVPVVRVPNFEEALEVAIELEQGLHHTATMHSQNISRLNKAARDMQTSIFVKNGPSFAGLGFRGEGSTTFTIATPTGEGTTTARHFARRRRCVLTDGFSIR
Chain of Salmonella enterica PduP, CoA-acylating propionaldehyde dehydrogenase (PduP_S.ent, AAD39015, SEQ ID NO:33 and 34), poly-His6 tagged (Q9XDN1 whole entry): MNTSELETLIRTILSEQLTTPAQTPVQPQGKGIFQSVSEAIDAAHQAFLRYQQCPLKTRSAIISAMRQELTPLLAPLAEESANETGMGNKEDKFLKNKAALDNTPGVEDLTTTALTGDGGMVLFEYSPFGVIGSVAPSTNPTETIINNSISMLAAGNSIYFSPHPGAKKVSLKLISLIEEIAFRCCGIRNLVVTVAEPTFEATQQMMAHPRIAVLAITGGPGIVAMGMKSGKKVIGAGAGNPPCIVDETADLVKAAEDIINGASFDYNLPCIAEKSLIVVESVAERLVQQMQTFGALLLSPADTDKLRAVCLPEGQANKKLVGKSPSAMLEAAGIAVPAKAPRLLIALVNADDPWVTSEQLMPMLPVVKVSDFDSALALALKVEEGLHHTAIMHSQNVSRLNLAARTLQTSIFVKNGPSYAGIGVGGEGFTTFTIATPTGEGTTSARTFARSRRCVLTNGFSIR

## CCCCO [n-butanol]
[1]; 750 mg/L of n-butanol in culture medium
  growth of S. elongatus strain BUOH-SE: visible growth retardation
[1]; 1 g/L of n-butanol
  growth of S. elongatus strain BUOH-SE: cell growth is inhibited
[2]; 750 mg/L n-butanol in culture medium
  growth of S. elongatus strain BUOH-SE: visible growth retardation
[2]; 1 g/L n-butanol
  growth of S. elongatus strain BUOH-SE: cell growth is inhibited

## CC(=O)SCCNC(=O)CCNC(=O)[C@H](O)C(C)(C)COP(=O)(O)OP(=O)(O)OC[C@H]1O[C@@H](n2cnc3c(N)ncnc32)[C@H](O)[C@@H]1OP(=O)(O)O [Acetyl-CoA, acetyl-CoA]
[3]
  kcat: 0.26 ± 0.10 s⁻¹
[4]
  kcat: 4.63 ± 0.19 s⁻¹
[5]
  kcat: 11.33 ± 0.97 s⁻¹
[6]
  kcat: 0.08 ± 0.01 s⁻¹
[7]
  kcat: 14.81 ± 1.00 s⁻¹

B1: K. pne: PduP homologue from Klebsiella pneumoniae, YP_001336844; SEQ ID NO:45 and 46 (protein, listed as Klebsiella pneumoniae)
chain: MNTAELETLIRTILSEKLAPTPPAPQQEQGIFCDVGSAIDAAHQAFLRYQQCPLKTRSAIISALRETLAPELATLAEESATETGMGNKEDKYLKNKAALENTPGIEDLTTSALTGDGGMVLFEYSPFGVIGAVAPSTNPTETIINNSISMLAAGNSVYFSPHPGAKKVSLKLIARIEEIAYRCSGIRNLVVTVAEPTFEATQQMMSHPLIAVLAITGGPGIVAMGMKSGKKVIGAGAGNPPCIVDETADLVKAAEDIISGAAFDYNLPCIAEKSLIVVASVADRLIQQMQDFDALLLSRQEADTLRAVCLPDGAANKKLVGKSPAALLAAAGLAVPPRPPRLLIAEVEANAPWVTCEQLMPVLPIVRVADFDSALALALRVEEGLHHTAIMHSQNVSRLNLAARTLQTSIFVKNGPSYAGIGVGGEGFTTFTIATPTGEGTTSARTFARLRRCVLTNGFSIR
[8]
  Specific activity for butyryl-CoA reduction: 8.9 ± 4.6 µmol/min/mg
[9]
  Acyl-CoA substrate favoured (highest specific activity): highest for propionyl-CoA reduction
[10]
  Alcohol production from the growth rescue broth, n-butanol versus ethanol: more n-butanol than ethanol

B2: Lactobacillus brevis PduP, CoA-acylating propionaldehyde dehydrogenase (PduP_L.bre, YP_795711, SEQ ID NO:47 and 48), poly-His6 tagged (Levilactobacillus brevis … (protein)
chain: MNTENIEQAIRKILSEELSNPQSSTATNTTVPGKNGIFKTVNEAIAATKAAQENYADQPISVRNKVIDAIREGFRPYIEDMAKRIHDETGMGTVSAKIAKLNNALYNTPGPEILQPEAETGDGGLVMYEYAPFGVIGAVGPSTNPSETVIANAIMMLAGGNTLFFGAHPGAKNITRWTIEKLNELVADATGLHNLVVSLETPSIESVQEVMQHPDVAMLSITGGPAVVHQALISGKKAVGAGAGNPPAMVDATANIALAAHNIVDSAAFDNNILCTAEKEVVVEAAVKDELIMRMQQEGAFLVTDSADIEKLAQMTIGPKGAPDRKFVGKDATYILDQAGISYTGTPTLIILEAAKDHPLVTTEMLMPILPVVCCPDFDSVLATATEVEGGLHHTASIHSENLPHINKAAHRLNTSIFVVNGPTYCGTGVATNGAHSGASALTIATPTGEGTATSKTYTRRRRLNSPEGFSLRTWEA
[8]
  Specific activity for butyryl-CoA reduction: 2.5 ± 0.2 µmol/min/mg
[9]
  Acyl-CoA substrate favoured (highest specific activity): hexanoyl-CoA
[10]
  Alcohol production from the growth rescue broth, n-butanol versus ethanol: more n-butanol than ethanol
[11]
  Km: 76.0 ± 38.2 µM
[12]
  Km: 534.3 ± 59.8 µM

— patent US20160138049A1, “OXYGEN-TOLERANT CoA-ACETYLATING [sequence] DEHYDROGENASE CONTAINING PATHWAY FOR BIOFUEL PRODUCTION” (The Regents of the University of California, priority 2013, published 2016)
